Experiment: dissolution release of hard shell capsule formulations, USP Basket Method (Apparatus 1)

Q: Which “time in which lovastatin was completely released (in vitro release, FIG. 2)” value (Precirol ATO5 capsule systems containing the fast hydrating Methocel polymers, water with 1% sodium dodecyl sulfate, 37° C., 100 RPM) does the source give for `CC[C@H](C)C(=O)O[C@H]1C[C@@H](C)C=C2C=C[C@H](C)[C@H](CC[C@@H]3C[C@@H](O)CC(=O)O3)[C@H]21` [lovastatin] here?
A: 4 h

Q: What about the “period over which sustained release of lovastatin was obtained (in vitro release, FIG. 2)” value (Precirol ATO5 capsule systems containing the non-hydrating Ethocel, water with 1% sodium dodecyl sulfate, 37° C., 100 RPM) of the same molecule?
A: 24 h

Q: And the “rank order of release rate by cellulose polymer (FIG. 1)” value (lovastatin, Compritol 888 capsule system, fastest hydrating polymers gave faster release)?
A: Methocel K>Methocel E>Ethocel

Q: What about the “release of lovastatin by type of cellulosic polymer, compritol formulation” value (lovastatin, compritol, Methocel K100M vs Ethocel P20) of the same molecule?
A: released considerably faster from a formulation of Methocel K100M than Ethocel P20

Q: What about the “release of lovastatin by type of cellulosic polymer, precirol formulation” value (lovastatin/precirol, Methocel K100M vs Ethocel P20) of the same molecule?
A: faster when the formulation contains Methocel K100M than Ethocel P20

Q: What about the “release of lovastatin by type of high melting fatty acid ester” value (same cellulose (methocel) component, prolonged period of about 24 hours) of the same molecule?
A: fastest with Precirol AT05, slowest with Compritol 888

— patent US6596308B2, “Controlled release pharmaceutical composition” (Kos Pharmaceuticals, Incorporated, priority 2001, dated 2003)
